Experimental data from PubChem BioAssay (NCI).
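Where inhibition never reached the appropriate level, the endpoint shown equals the highest concentration tested. Otherwise, values were interpolated linearly from a five-concentration, 48-hour dose response in 96-well plates. Definition used: TGI = concentration required for complete inhibition of growth.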

How the values were obtained:
Test in all cases: DTP human tumour cell line panel, 48 h
HS 578T breast = tested on: HS 578T breast
HOP-92 NSCLC = tested on: HOP-92 NSCLC
SF-295 CNS = tested on: SF-295 CNS
RPMI-8226 leukemia = tested on: RPMI-8226 leukemia
T-47D breast = tested on: T-47D breast
EKVX NSCLC = tested on: EKVX NSCLC
RXF 393 renal = tested on: RXF 393 renal
HCT-116 colon = tested on: HCT-116 colon
SK-MEL-2 melanoma = tested on: SK-MEL-2 melanoma
MDA-MB-231 breast = tested on: MDA-MB-231 breast
DU-145 prostate = tested on: DU-145 prostate
SNB-75 CNS = tested on: SNB-75 CNS
COLO 205 colon = tested on: COLO 205 colon
ACHN renal = tested on: ACHN renal
A498 renal = tested on: A498 renal
MDA-MB-435 = tested on: MDA-MB-435
SW-620 colon = tested on: SW-620 colon
SF-539 CNS = tested on: SF-539 CNS
OVCAR-5 ovarian = tested on: OVCAR-5 ovarian
NCI-H522 lung = tested on: NCI-H522 lung

SMILES	TGI (HS 578T breast) [µM]	TGI (HOP-92 NSCLC) [µM]	TGI (SF-295 CNS) [µM]	TGI (RPMI-8226 leukemia) [µM]	TGI (T-47D breast) [µM]	TGI (EKVX NSCLC) [µM]	TGI (RXF 393 renal) [µM]	TGI (HCT-116 colon) [µM]	TGI (SK-MEL-2 melanoma) [µM]	TGI (MDA-MB-231 breast) [µM]	TGI (DU-145 prostate) [µM]	TGI (SNB-75 CNS) [µM]	TGI (COLO 205 colon) [µM]	TGI (ACHN renal) [µM]	TGI (A498 renal) [µM]	TGI (MDA-MB-435) [µM]	TGI (SW-620 colon) [µM]	TGI (SF-539 CNS) [µM]	TGI (OVCAR-5 ovarian) [µM]	TGI (NCI-H522 lung) [µM]
O=C(/C=C/c1ccc(OCc2ccccc2)cc1)NCc1ccc(C(=O)NCCc2c[nH]c3ccccc23)cc1	29.9	61.1	17.2	> 100	> 100	> 100	24.9	> 100	> 82.6	61.1	> 100	38.1	> 100	> 100	> 100	> 100	> 100	11.2	69.4	–
COC1=N[C@H](C(C)C)C(OC)=N[C@H]1Cc1ccc(C[C@@H]2N=C(OC)[C@@H](C(C)C)N=C2OC)s1	> 100	> 100	> 100	–	38.9	> 100	–	> 100	49.3	> 100	> 100	> 100	> 100	> 100	–	> 100	> 100	> 100	77.9	63.2
O=[N+]([O-])C1=Cc2cc(Cl)ccc2OC1c1cccc2ccccc12 (stereo unspecified)	7.71	3	6.19	–	2.81	2.81	1.46	0.355	3.13	6.23	4.7	1.95	6.71	2.99	3.9	5.35	0.459	–	4.05	2.9
CCOC(=O)c1nc2ccccc2nc1NCc1ccc(OC)c(OC)c1	> 100	> 100	> 100	> 100	> 100	> 100	> 100	> 100	–	> 100	> 100	> 100	> 100	> 100	> 100	> 100	> 100	> 100	> 100	> 100
COC(=O)CCC1=NCC(C)(C)O1	> 10	–	> 10	> 10	> 10	> 10	> 10	> 10	> 10	> 10	> 10	> 10	> 10	> 10	> 10	> 10	> 10	> 10	> 10	> 10
N#Cc1c(C#N)c(-c2ccccc2)n(Cc2ccccc2)c1N	> 100	–	> 100	> 100	> 100	> 100	> 100	> 100	> 100	86.4	> 100	64.7	> 100	> 100	> 100	> 100	> 100	63.4	> 100	> 100
Cc1ccc(S(=O)(=O)NC(=O)Nc2cccc(S(N)(=O)=O)c2)cc1	> 100	> 100	> 100	> 100	> 100	> 100	> 100	> 100	> 100	> 100	> 100	> 100	> 100	> 100	> 100	> 100	> 100	> 100	> 100	> 100
C[C@@H](CC(=O)O)OC1OC(COC(=O)C(C)(C)C)C(OC(=O)C(C)(C)C)C(OC(=O)C(C)(C)C)C1OC(=O)C(C)(C)C (stereo partly specified)	> 100	> 100	> 100	71.8	> 100	> 100	> 100	> 100	> 100	> 100	> 100	> 100	> 100	64.4	> 100	> 100	> 100	> 100	> 100	> 100
CC1=NN(c2nc(N)nc(CSc3cc(Cl)c(C)cc3S(N)(=O)=O)n2)C(C)(C)C1	> 10	–	> 10	> 10	> 10	> 10	> 10	> 10	> 10	> 10	> 10	> 10	> 10	> 10	> 10	> 10	> 10	> 10	> 10	> 10
COC(=O)C1CCC(=O)N1CN(C(C)=O)c1cc(OC)ccc1OC (stereo unspecified)	> 100	> 100	> 100	> 100	> 100	> 100	> 100	> 100	> 100	> 100	> 100	> 100	> 100	> 100	> 100	> 100	> 100	> 100	> 100	> 100
COC(=O)CN(CC(O)C(NC(C)=O)C(O)C=O)C(=O)OCc1ccccc1 (stereo unspecified)	> 100	> 100	> 100	> 100	> 100	> 100	> 100	> 100	> 100	> 100	> 100	> 100	> 100	> 100	> 100	> 100	> 100	> 100	> 100	> 100
CC(C)(C)OC(=O)N1CC(CCl)c2ccc(O)cc21 (stereo unspecified)	7.41	6.87	18.7	7.96	12.7	6.73	2.85	12.1	3.2	11.4	5.73	3.11	4.53	3.38	4.82	4.06	11	4.96	10.2	2.01
O=C1NC(N2CCCC(CO)C2)=N/C1=C\c1ccccc1 (stereo unspecified)	> 100	> 100	> 100	> 100	> 100	> 100	> 100	> 100	> 100	> 100	> 100	> 100	> 100	> 100	–	> 100	> 100	> 100	> 100	> 100
Cn1c2c(c3ccccc31)CCN=C2C1CCCOC1=O (stereo unspecified)	> 100	> 100	–	–	> 100	> 100	> 100	> 100	> 100	> 100	> 100	> 100	> 100	> 100	> 100	> 100	> 100	> 100	> 100	> 100
O=C(CC(O)(C(F)(F)F)C(F)(F)Cl)CC(O)(C(F)(F)F)C(F)(F)Cl (stereo unspecified)	6.69	4.57	7.91	> 10	> 10	> 10	6.58	5.31	4.15	5.43	> 10	> 10	3.07	> 10	9.22	> 10	> 10	> 10	–	8.78
Cc1c[nH]c(C(=O)O)c1-c1cccn1-c1ccc(Cl)cc1[N+](=O)[O-]	> 100	> 100	> 100	–	> 100	> 100	> 100	> 100	> 100	> 100	> 100	> 100	> 100	> 100	> 100	> 100	> 100	> 100	> 100	> 100
CC(=O)c1c(SCCN2CCOCC2)n(-c2ccccc2)c(=S)n(-c2ccccc2)c1=O	> 100	30.5	> 100	> 29.4	55.5	> 76.3	25.7	30.5	39.4	37.1	22.7	> 55.1	41.8	30.1	26.1	33.6	49.9	43.9	> 100	48.4
c1ccc2c(c1)nc1n2CSCC1	> 100	> 100	> 100	> 100	> 100	> 100	> 100	> 100	> 100	> 100	> 100	> 100	> 100	> 100	> 100	> 100	> 100	> 100	> 100	–
CNC(=O)N(CCC#N)CCN(C(=O)N(C)C)c1ccccc1	> 100	> 100	> 100	> 100	> 100	> 100	> 100	> 100	> 100	> 100	> 100	> 100	> 100	> 100	> 100	> 100	> 100	> 100	> 100	> 100
Cn1c(=O)c2sc3c4sc5c(=O)n(C)c6ccccc6c5c4sc3c2c2ccccc21	> 100	> 100	–	> 100	> 100	> 100	97.6	> 100	> 100	> 100	> 100	> 100	> 100	> 100	> 100	> 100	> 100	> 100	> 100	> 100
Cc1cc(S(=O)(=O)Nc2nnc3c4ccccc4cnn23)c(S)cc1Cl	> 89	> 100	> 100	> 100	> 100	> 100	> 100	> 100	> 100	> 100	> 100	> 100	> 100	> 100	> 100	> 100	> 100	> 95	> 100	> 100
O=C1c2c(Br)sc(Br)c2[C@@H](Cl)[C@H]1Cl	> 100	42.5	40.7	54.6	44.8	46.6	30.7	48.8	37.7	36.8	35.9	34.1	31.8	37.4	> 100	43.8	> 100	27.1	43	10.9
NC(=O)CN1CC(C2=C(O)CN(CC(N)=O)C2=O)=CC1=O	> 100	> 100	> 100	> 100	> 100	> 100	–	> 100	> 100	> 100	> 100	> 100	> 100	> 100	> 100	> 100	> 100	> 100	> 100	> 100
COc1cc2cc(C(=O)N3CC(CCl)c4ccc([N+](C)(C)Cc5ccc([N+](=O)[O-])cc5)cc43)[nH]c2c(OC)c1OC (stereo unspecified)	47	6.58	15.3	4.62	66.2	29.3	3.09	–	5.26	46.6	10.8	11.1	14.2	7.12	3.5	24	6.18	5.64	> 100	3.47
